Earlier results as cited in US9622975B2, “Pharmaceutical composition” (Novartis AG, priority 2005, dated 2017).

Tests used:
[1] = in vivo
[2] = especially in the alkaline conditions of the intestine

SMILES	absorbed by the gastro-intestinal tract [1]	water solubility [2]
O=C(O)CCCCCCCCCNC(=O)c1ccccc1O [SNAD, N-(10-[2-hydroxybenzoyl]amino) decanoic acid]	greater than 90%	
O=C(O)CCCCCCCNC(=O)c1ccccc1O [SNAC, N-(8-[2-hydroxybenzoyl]amino) caprylic acid]		very water soluble
O=C(O)CCCCCCCNC(=O)c1cc(Cl)ccc1O [Example 5-CNAC, N-(5-chlorosalicyloyl)-8-aminocaprylic acid]		very water soluble
